Results from US20190382320A1, “ENHANCED STABILITY OF UREASE INHIBITOR-CONTAINING COMPOSITIONS” (Koch Agronomic Services, LLC, priority 2017, published 2019).

What was measured:
[1] = Hydrolysis of NBPT adduct-containing compositions at varying pH (OPPTS 835.2120), LC-MS monitoring; assay type: physicochemical; conditions: pH=4, 50° C.
Procedure: NBPT adduct-containing compositions were prepared by a method similar to that described in Example 1, with the exception that acetonitrile, rather than N-methylpyrrolidone was used as the solvent and, after <20 wt. % of free NBPT remained (based on UPLC testing), the acetonitrile was evaporated. As such, the NBPT in the “adduct-containing composition” subjected to hydrolysis according to the method of Example 2 is initially partially in adduct form and partially in free form (i.e., the composition includes both NBPT-containing adduct and free NBPT).
The NBPT adduct-containing compositions were hydrolyzed in accordance with OPPTS 835.2120 guidelines (https://www.regulations.gov/document?D=EPA-HQ-OPPT-2009-0152-0009), which are incorporated herein by reference. Specifically, samples comprising the NBPT adducts were subjected to various pH conditions (pH=4, pH=7, and pH=9) to evaluate the hydrolysis profiles at these varying pH values at 50° C. for 5 days. Hydrolysis of the NBPT adduct-containing compositions (by evaluating total NBPT adduct concentration as well as free NBPT concentration (i.e., NBPT in non-adduct form)) was monitored at hourly-to-daily intervals by liquid chromatography-mass spectroscopy (LC-MS), with secondary detection via ultraviolet (UV) detection at 200 nm. […]

[2] = NBPT hydrolysis over time in acetonitrile; assay type: physicochemical; conditions: in acetonitrile (no hydrolysis conditions)
Text: FIGS. 4A and 4B present data on a study of NBPT hydrolysis over time in acetonitrile. As shown, little change is observed over the course of the study.

For `CCCCNP(N)(N)=S` [free NBPT, N-(n-butyl) thiophosphoric triamide], the “amount of free NBPT in the composition” value ([1]; day 3) was “minimal”, the “amount of free NBPT in the composition” value ([1]; day 4) was “completely gone” and the “change of overall amount over the course of the study” value [2] was “not actively degraded”.
